The assay concerns Aβ42 production. The experiment in a line: Quantification of Aβ peptide in culture of neurons from rat fetus brain (Aβ42 ELISA). The settings on record: Neuron, 72 h, rat primary neuronal culture (embryonic day 18 Wistar rat cerebral cortex), medium collected three days after addition of compound, read-out: Aβ42 production reducing effect IC50. The assay is classed as cell-based. The method, then: Quantification of Aβ Peptide in Culture of Neurons from Rat Fetus Brain
Primary neuronal cultures were prepared from the cerebral cortex of embryonic day 18 Wistar rats (Charles River Japan, Yokohama, Japan). Specifically, the embryos were aseptically removed from pregnant rats under ether anesthesia. The brain was isolated from the embryo and immersed in an ice-cold L-15 medium (such as Invitrogen Corp. Cat #11415-064, Carlsbad, Calif., USA, or SIGMA L1518). The cerebral cortex was collected from the isolated brain under a stereoscopic microscope. The cerebral cortex fragments collected were enzymatically treated in an enzyme solution containing 0.25% trypsin (Invitrogen Corp. Cat #15050-065, Carlsbad, Calif., USA) and 0.01% DNase (Sigma D5025, St. Louis, Mo., USA) at 37° C. for 30 minutes to disperse the cells. Here, the enzymatic reaction was stopped by adding inactivated horse serum to the solution. The enzymatically treated solution was centrifuged at 1,500 rpm for five minutes to remove the supernatant. 5 to 10 ml of a medium was added to the resulting cell mass. Neurobasal medium (Invitrogen Corp. Cat #21103-049, Carlsbad, Calif., USA) supplemented with 2% B27 supplement (Invitrogen Corp. Cat #17504-044, Carlsbad, Calif., USA), 25 μM 2-mercaptoethanol (2-ME, WAKO Cat #139-06861, Osaka, Japan), 0.5 mM L-glutamine (Invitrogen Corp. Cat #25030-081, Carlsbad, Calif., USA), and Antibiotics-Antimycotics (Invitrogen Corp. Cat #15240-062, Carlsbad, Calif., USA) was used as the medium (Neurobasal/B27/2-ME). However, the above Neurobasal medium not supplemented with 2-ME (Neurobasal/B27) was used for the assay. The cells were redispersed by mild pipetting of the cell mass to which the medium was added. The cell dispersion was filtered through a 40-μm nylon mesh (Cell Strainer, Cat #35-2340, Becton Dickinson Labware, Franklin Lakes, N.J., USA) to remove the remaining cell mass, and thus a neuronal cell suspension was obtained. The neuronal cell suspension was diluted with the medium and then plated in a volume of 100 μl/well at an initial cell density of 5×10^5 cells/cm^2 in a 96-well polystyrene culture plate pre-coated with poly-L or D-lysine (Falcon Cat #35-3075, Becton Dickinson Labware, Franklin Lakes, N.J., USA coated with poly-L-lysine using the method shown below, or BIOCOAT™ cell environments Poly-D-lysine cell ware 96-well plate, Cat #35-6461, Becton Dickinson Labware, Franklin Lakes, N.J., USA). Poly-L-lysine coating was carried out as follows. 100 μg/ml of a poly-L-lysine (SIGMA P2636, St. Louis, Mo., USA) solution was aseptically prepared with a 0.15 M borate buffer (pH 8.5). […] of the solution was added to the 96-well polystyrene culture plate and incubated at room temperature for one or more hours or at 4° C. overnight or longer. Thereafter, the coated 96-well polystyrene culture plate was washed with sterile water four or more times, and then dried or rinsed with, for example, sterile PBS or medium, and used for cell plating. The plated cells were cultured in the culture plate at 37° C. in 5% CO2-95% air for one day. Then, the total amount of the medium was replaced with a fresh Neurobasal/B27/2-ME medium, and then the cells were cultured for further three days.
The drug was added to the culture plate on Day 4 of culture as follows. The total amount of the medium was removed from the wells, and 180 μl/well of Neurobasal medium not containing 2-ME and containing 2% B-27 (Neurobasal/B27) was added thereto. A solution of the test compound in dimethyl sulfoxide (hereinafter abbreviated as DMSO) was diluted with Neurobasal/B27 to a concentration 10-fold higher than the final concentration. 20 μl/well of the dilution was added to and sufficiently mixed with the medium. The final DMSO concentration was 1% or less. Only DMSO was added to the control group.
The cells were cultured for three days after addition of the compound, and the total amount of the medium was collected. […]
In general terms: ELISA stands for enzyme-linked immunosorbent assay.
The IC50 is the point on the concentration scale where inhibition reaches its midpoint. Turning to `NC1=N[C@@]2(c3cc(NC(=O)c4cnc(C(F)F)cn4)ccc3F)CO[C@@H](CF)C[C@H]2CS1` [Example 48, N-[3-((4aR,6R,8aS)-2-amino-6-fluoromethyl-4,4a,5,6-tetrahydro-7-oxa-3-thia-1-azanaphthalen-8a-yl)-4-fluorophenyl]-5-difluoromethylpyrazine-2-carboxamide], the IC50 came out at 2 nM.
Turning to `C[C@H]1C[C@H]2CSC(N)=N[C@@]2(c2cc(NC(=O)c3ccc(C(F)(F)F)cn3)ccc2F)CO1` (relative stereo) [Example 8, N-[3-((4aR*,6S*,8aS*)-2-amino-6-methyl-4,4a,5,6-tetrahydro-7-oxa-3-thia-1-azanaphthalen-8a-yl)-4-fluorophenyl]-5-trifluoromethylpyridine-2-carboxamide], the IC50 is 1.6 nM.
Under `C[C@H]1C[C@H]2CSC(N)=N[C@@]2(c2cc(NC(=O)c3cnc(OC(F)F)cn3)ccc2F)CO1` (relative stereo) [Example 9, N-[3-((4aR*,6S*,8aS*)-2-amino-6-methyl-4,4a,5,6-tetrahydro-7-oxa-3-thia-1-azanaphthalen-8a-yl)-4-fluorophenyl]-5-difluoromethoxypyrazine-2-carboxamide] stands 0.6 nM.
In the case of `NC1=N[C@@]2(c3cc(NC(=O)c4ncc(Br)cc4Br)ccc3F)COCC[C@H]2CS1` (single isomer, unassigned) [Example 54, N-[3-((4aR*,8aS*)-2-amino-4,4a,5,6-tetrahydro-7-oxa-3-thia-1-azanaphthalen-8a-yl)-4-fluorophenyl]-3,5-dibromopyridine-2-carboxamide], the IC50 was 2 nM.
As for `N#Cc1ccc(C(=O)Nc2ccc(F)c([C@]34CO[C@@H](C(F)(F)F)C[C@H]3CSC(N)=N4)c2)nc1` (relative stereo) [Example 35, N-[3-((4aR*,6R*,8aS*)-2-amino-6-trifluoromethyl-4,4a,5,6-tetrahydro-7-oxa-3-thia-1-azanaphthalen-8a-yl)-4-fluorophenyl]-5-cyanopyridine-2-carboxamide], the IC50 came to 2.1 nM.
For the molecule `C[C@@H]1COC[C@]2(c3cc(NC(=O)c4cnc(OC(F)F)cn4)ccc3F)N=C(N)SC[C@H]12` (relative stereo) [Example 25, N-[3-((4aR*,5S*,8aS*)-2-amino-5-methyl-4,4a,5,6-tetrahydro-7-oxa-3-thia-1-azanaphthalen-8a-yl)-4-fluorophenyl]-5-difluoromethoxypyrazine-2-carboxamide], the IC50 worked out at 14 nM.
Under `NC1=N[C@@]2(c3cc(NC(=O)c4ccc(Br)cn4)ccc3F)COCC[C@H]2CS1` (single isomer, unassigned) [Example 50, N-[3-((4aR*,8aS*)-2-amino-4,4a,5,6-tetrahydro-7-oxa-3-thia-1-azanaphthalen-8a-yl)-4-fluorophenyl]-5-bromopyridine-2-carboxamide] stands 2 nM.
For the molecule `NC1=N[C@@]2(c3cc(NC(=O)c4ccc(Cl)cn4)ccc3F)COC[C@@H](F)[C@H]2CS1` [Example 18, N-[3-((4aS,5S,8aS)-2-amino-5-fluoro-4,4a,5,6-tetrahydro-7-oxa-3-thia-1-azanaphthalen-8a-yl)-4-fluorophenyl]-5-chloropyridine-2-carboxamide], the IC50 came to 7 nM.
Under `COC[C@H]1C[C@H]2CSC(N)=N[C@@]2(c2cc(NC(=O)c3cnc(OC(F)F)cn3)ccc2F)CO1` (relative stereo) [Example 15, N-[3-((4aR*,6R*,8aS*)-2-amino-6-methoxymethyl-4,4a,5,6-tetrahydro-7-oxa-3-thia-1-azanaphthalen-8a-yl)-4-fluorophenyl]-5-difluoromethoxypyrazine-2-carboxamide] stands 0.4 nM; under `NC1=N[C@@]2(c3cc(-c4cccnc4F)ccc3F)COCC[C@H]2CS1` (racemic) [Example 61, (±)-(4aR*,8aS*)-8a-[2-fluoro-5-(2-fluoropyridin-3-yl)phenyl]-4,4a,5,6,8,8a-hexahydro-7-oxa-3-thia-1-azanaphthalen-2-ylamine], 319 nM; under `N#Cc1ccc(C(=O)Nc2ccc(F)c([C@]34COC[C@@H](F)[C@H]3CSC(N)=N4)c2)nc1` [Example 16, N-[3-((4aS,5S,8aS)-2-amino-5-fluoro-4,4a,5,6-tetrahydro-7-oxa-3-thia-1-azanaphthalen-8a-yl)-4-fluorophenyl]-5-cyanopyridine-2-carboxamide], 1.1 nM.
As to `C[C@H]1C[C@H]2CSC(N)=N[C@@]2(c2cc(NC(=O)c3cnc(OCF)cn3)ccc2F)CO1` (relative stereo) [Example 10, N-[3-((4aR*,6S*,8aS*)-2-amino-6-methyl-4,4a,5,6-tetrahydro-7-oxa-3-thia-1-azanaphthalen-8a-yl)-4-fluorophenyl]-5-fluoromethoxypyrazine-2-carboxamide], the IC50 worked out at 1 nM.
Under `NC1=N[C@@]2(c3cc(NC(=O)c4cnc(C(F)F)cn4)ccc3F)CO[C@@H](C(F)(F)F)C[C@H]2CS1` (relative stereo) [Example 43, N-[3-((4aR*,6R*,8aS*)-2-amino-6-trifluoromethyl-4,4a,5,6-tetrahydro-7-oxa-3-thia-1-azanaphthalen-8a-yl)-4-fluorophenyl]-5-difluoromethylpyrazine-2-carboxamide] stands 1.7 nM.
Under `NC1=N[C@@]2(c3cc(NC(=O)c4ncc(F)cc4F)ccc3F)CO[C@@H](C(F)(F)F)C[C@H]2CS1` (relative stereo) [Example 41, N-[3-((4aR*,6R*,8aS*-2-amino-6-trifluoromethyl-4,4a,5,6-tetrahydro-7-oxa-3-thia-1-azanaphthalen-8a-yl)-4-fluorophenyl]-3,5-difluoropyridine-2-carboxamide] stands 2 nM; under `NC1=N[C@@]2(c3cc(NC(=O)c4ccc(OC(F)F)cn4)ccc3F)COCC[C@H]2CS1` (single isomer, unassigned) [Example 58, N-[3-((4aR*,8aS*)-2-amino-4,4a,5,6-tetrahydro-7-oxa-3-thia-1-azanaphthalen-8a-yl)-4-fluorophenyl]-5-difluoromethoxypyridine-2-carboxamide], 4 nM; under `NC1=N[C@@]2(c3cc(NC(=O)c4cnc(C(F)F)cn4)ccc3F)COCC[C@H]2CS1` (single isomer, unassigned) [Example 57, N-[3-((4aR*,8aS*)-2-amino-4,4a,5,6-tetrahydro-7-oxa-3-thia-1-azanaphthalen-8a-yl)-4-fluorophenyl]-5-difluoromethylpyrazine-2-carboxamide], 2 nM.
Consider `NC1=N[C@@]2(c3cc(NC(=O)c4cnc(OCF)cn4)ccc3F)CO[C@@H](CF)C[C@H]2CS1` [Example 47, N-[3-((4aR,6R,8aS)-2-amino-6-fluoromethyl-4,4a,5,6-tetrahydro-7-oxa-3-thia-1-azanaphthalen-8a-yl)-4-fluorophenyl]-5-fluoromethoxypyrazine-2-carboxamide], for which the IC50 is 4 nM.
Under `COC[C@H]1C[C@H]2CSC(N)=N[C@@]2(c2cc(NC(=O)c3cnc(OCF)cn3)ccc2F)CO1` (relative stereo) [Example 14, N-[3-((4aR*,6R*,8aS*)-2-amino-6-methoxymethyl-4,4a,5,6-tetrahydro-7-oxa-3-thia-1-azanaphthalen-8a-yl)-4-fluorophenyl]-5-fluoromethoxypyrazine-2-carboxamide] stands 0.8 nM.

(Values after US20110207723A1, “NOVEL FUSED AMINODIHYDROTHIAZINE DERIVATIVE” (EISAI R&D MANAGEMENT CO., LTD., priority 2008, published 2011).)
